This is an account of results in publication PMC4674391 (Archives of toxicology, 2015).

Series [1] deals with zfOatp1f2-1. The class given is in vitro ADME, zebrafish (Danio rerio).
The subject of series [2] is zfOatp1f1. The series is classed as in vitro ADME, zebrafish (Danio rerio).
Series [3] deals with zfOatp2b1. The class given is in vitro ADME, zebrafish (Danio rerio).
Series [4] has as its system zfOatp1f4-2. The class given is in vitro ADME, zebrafish (Danio rerio).
For series [5], the system named is zfOatp1f3. The series is classed as in vitro ADME, zebrafish (Danio rerio).
For series [6], the system named is zfOatp1f2-2. The series is classed as in vitro ADME, zebrafish (Danio rerio).
For series [7], the system named is zfOatp4a1. The series is classed as in vitro ADME, zebrafish (Danio rerio).
In series [8] the test system is zfOatp1d1. The class given is in vitro ADME, zebrafish (Danio rerio).
Series [9] deals with zfOatp1f4-1. The series is classed as in vitro ADME, zebrafish (Danio rerio).
Series [10] concerns zfOatp1f3. The class given is in vitro ADME, zebrafish (Danio rerio). The source holds these as a separate data set.
Series [11] relates to Ser/Thr protein phosphatases (ser/thrPP). As to conditions: cited from earlier work.
Series [12] relates to zfOatp1f4-2. The series is classed as in vitro ADME, zebrafish (Danio rerio). This is another data set of the same source.
In series [13] the test system is zfOatp1f4-1. The series is classed as in vitro ADME, zebrafish (Danio rerio). The source holds these as a separate data set.
Series [14] concerns zfOatp1d1. The class given is in vitro ADME, zebrafish (Danio rerio). The source holds these as a separate data set.
The subject of series [15] is zfOatp1f1. The series is classed as in vitro ADME, zebrafish (Danio rerio). The source holds these as a separate data set.
Series [16] concerns zfOatp1f2-2. The series is classed as in vitro ADME, zebrafish (Danio rerio). The source holds these as a separate data set.
Series [17] has as its system OATPs. Conditions: cited from earlier work.
Series [18] deals with zfOatp1f2-1. The class given is in vitro ADME, zebrafish (Danio rerio). The source holds these as a separate data set.
Series [19] concerns carp. As to conditions: in vivo, po; cited from earlier work.
The mark [20] stands for this setting: uptake for up to 30 min, transfected HEK293 (Figure S1).

Structures can show the parent of a compound that is named as a salt.

`C[C@]12CC[C@@H]3c4ccc(OS(=O)(=O)O)cc4CC[C@H]3[C@@H]1CCC2=O` [E3S, estrone sulfate ammonium salt]: the “[3H] E3S transport, prolonged uptake” value in series [1] (setting [20]) and in series [2] (setting [20]) was “no [^3H] E3S transport was observed” each time.

Take `CN(Cc1cnc2nc(N)nc(N)c2n1)c1ccc(C(=O)N[C@@H](CCC(=O)O)C(=O)O)cc1` [MTX, methotrexate disodium salt]: the “transport of Oatp substrate (uptake vs empty vector cells)” value in series [3] is recorded as “did not transport any of the three substrates”; in series [4], “none of the other zfOatps transported”; in series [1] it was “did not transport any of the three substrates”; in series [2] it was “did not transport any of the three substrates”; in series [5], “none of the other zfOatps transported”; in series [6], “none of the other zfOatps transported”. The “transport of Oatp substrate (uptake vs empty vector cells)” value is given as “did not transport any of the three substrates” in series [7], “transported” in series [8] and “none of the other zfOatps transported” in series [9].

With `C[C@H](CCC(=O)NCCS(=O)(=O)O)[C@H]1CC[C@H]2[C@@H]3[C@H](O)C[C@@H]4C[C@H](O)CC[C@]4(C)[C@H]3C[C@H](O)[C@]12C` [TCA, taurocholic acid], the “transport of Oatp substrate (uptake vs empty vector cells)” value is reported as “did not transport any of the three substrates” in series [3]; “none of the other zfOatps transported” in series [4]; “did not transport any of the three substrates” in series [1]; “did not transport any of the three substrates” in [2]; “transported” in series [8]; “none of the other zfOatps transported” in [9].

Consider Microcystin-LF [MC-LF], for which the “MC congener transport (screen)” value in [10] is “did not transport any of the four MC-congeners tested”; in series [12] it was “transported”; in series [13], “transported”; in series [14], “transported all tested MC-congeners”; in series [15] it was “absence of MC transport”; in series [16], “did not transport any of the four MC-congeners tested”. Further, the “MC congener transport (screen)” value in series [18] is on record as “did take up”. Further, the “inhibition of ser/thrPP activities” value in [11] is given as “approximately equimolar concentrations”. Moreover, the “time dependent MC uptake, relative speed” value is on record as “Comparable transport” in series [12], “Comparable transport” in series [13] and “slower than that observed for zfOatp1d1” in [18]. Moreover, the “affinity of zfOatp1d1 (Km), MC-LF compared to MC-LR” value in [14] came out at 2 fold. For the same compound, the “concentration dependent uptake (saturability)” value in [14] was “saturable”. For the same compound, in [14], the “relative Vmax (uptake velocity), MC-LF versus MC-LR” value is on record as 6 fold. In addition, in series [14], the “time within which transport occurred” value is reported as at most 1 h. Moreover, the “MC congener transport by OATPs” value in [17] is on record as “transport was demonstrated”.

For Microcystin-LR [MC-LR], in series [10], the “MC congener transport (screen)” value is “did not transport any of the four MC-congeners tested”. Moreover, the “inhibition of ser/thrPP activities” value in series [11] is listed as “approximately equimolar concentrations”. In addition, in series [19], the “MC-LR in brain and muscle tissue” value is listed as “detectable”; the “pathological changes in hepatopancreas and kidney” value is listed as “time-dependent pathological changes”. For the same compound, in series [14], the “MC congener transport (screen)” value was “transported all tested MC-congeners”, the “concentration dependent uptake (saturability)” value is “saturable” and the “time up to which uptake is linear” value was “up to 6 h”. For the same compound, in series [15], the “MC congener transport (screen)” value is reported as “absence of MC transport”. Further, the “MC congener transport (screen)” value in [16] is “did not transport any of the four MC-congeners tested”. The “MC congener transport by OATPs” value in series [17] is reported as “comparably minor extent”. Further, in series [18], the “MC congener transport (screen)” value is “did take up”; the “time dependent MC uptake, relative speed” value was “much slower than MC-LW and MC-LF”.

Microcystin-LW [MC-LW]: the “MC congener transport (screen)” value in series [10] is “did not transport any of the four MC-congeners tested”; in series [14], “transported all tested MC-congeners”; in series [15] it was “absence of MC transport”; in series [16], “did not transport any of the four MC-congeners tested”; in series [18], “did take up”. The “inhibition of ser/thrPP activities” value in [11] is “approximately equimolar concentrations”. The “time within which transport occurred” value in series [14] is at most 1 h. Also, the “MC congener transport by OATPs” value in series [17] is reported as “transport was demonstrated”. Further, the “time dependent MC uptake, relative speed” value in series [18] is recorded as “slower than that observed for zfOatp1d1”.

Microcystin-RR [MC-RR]: the “MC congener transport (screen)” value is on record as “did not transport any of the four MC-congeners tested” in series [10], “transported all tested MC-congeners” in series [14], “absence of MC transport” in [15] and “did not transport any of the four MC-congeners tested” in [16]. In addition, in series [11], the “inhibition of ser/thrPP activities” value is “approximately equimolar concentrations”. In addition, the “time after which nearly linear uptake plateaus” value in series [14] is listed as 12 h. In addition, the “MC congener transport by OATPs” value in series [17] is “lacked transport”.
